# In patent US8722701B2, “1,2,3,4,5 6,7,8-octohydro-9-phenylacetamidoacridine, the preparation method and medical use thereof” (priority 2010, dated 2014):
# Where a name gives a salt, the structure may show the parent alone. Marks after values point to notes of the source that are not given here.
# Tests used:
# [1] = system: aconitine-induced arrhythmia in rats; test: Aconitine-induced arrhythmia in rats; format: in vivo, Wistar rats; conditions: for Occurrence time CA / Occurrence time VF / Occurrence time VP / Occurrence time VT: 50 min before aconitine 20 μg/kg i.v., n=10, x±s; for Antagonistic action against the arrhythmia induced by aconitine in rats: 100 and 200 mg/kg intragastric, result in words
# Description: (§1) Models of experimental arrhythmia induced by aconitine and ouabain in rats and guinea pigs were constructed. The inventive compound and the hydrochloride thereof were administrated with dosages of 100 and 200 mg/kg, respectively. The positive medicament group was administrated with 10 mg/kg of Propranolol, and the control group was administrated with 0.5% carboxymethylcellulose sodium. Each group was administrated by gastric perfusion once. The occurrence times of ventricular premature contraction (VP), ventricular tachycardia (VT), ventricular fibrillation (VF) and cardiac arrest (CA) after administration of aconitine in rats were recorded; and the dosages of ouabain were also observed when VP, VT, VF and CA appeared.
# Sixty Wistar rats were divided into 6 groups randomly: a control group, a positive medicament (Propranolol) group, high- and low-dosage groups (200 and 100 mg/kg) of the inventive compound and the hydrochloride thereof, respectively, 10 animals per group. Fifty minutes after intragastric administration, the animals of each groups were anaesthetized by injecting 10% chloral hydrate intraperitoneally and fixed in a supine position. A type II lead normal electrocardiogram was then recorded. After that, 20 μg/kg of aconitine was injected via sublingual vein, and the change of the electrocardiogram was observed. The occurrence times of ventricular premature contraction (VP), ventricular tachycardia (VT), ventricular fibrillation (VF) and cardiac arrest (CA) after administration of aconitine in the rats were recorded.
# (§2) The experimental data were analyzed with the statistic software SPSS 10.0, and represented as x±s. The comparison among groups was analyzed by the intergroup comparison difference t test.
# [2] = system: ouabain-induced arrhythmia in guinea pigs; test: Ouabain-induced arrhythmia in guinea pigs; format: in vivo, EWG/B guinea pigs; conditions: for Dosages of ouabain CA / Dosages of ouabain VF / Dosages of ouabain VP / Dosages of ouabain VT: ouabain infused 5 μg/min, n=6, x±s; for Antagonistic action against the arrhythmia induced by ouabain in guinea pigs: 100 and 200 mg/kg intragastric, result in words
# Description: as §1
# Thirty-six guinea pigs were divided into 6 groups randomly: a control group, a positive medicament (Propranolol) group, high- and low-dosage groups (200 and 100 mg/kg) of the inventive compound and the hydrochloride thereof, respectively, 6 animals per group. Fifty minutes after intragastric administration, the animals of each groups were anaesthetized by injecting 10% chloral hydrate intraperitoneally and fixed in a supine position. After the external jugular vein was separated, intubation was performed and a constant-speed micro-infusion apparatus was installed. Then a type II lead normal electrocardiogram was recorded. After that, ouabain was infused via the external jugular vein at a constant rate of 5 μg/min, and the change of the electrocardiogram was observed. The dosages of ouabain when VP, VT, VF and CA occurred after administration of ouabain in the guinea pigs were recorded.
# as §2
# cholinesterase = conditions: Chinese Patent No. ZL 03104541.3; result in words; cited from earlier work
# [3] = system: arrhythmia induced by coronary artery ligation in rats; test: Arrhythmia induced by coronary artery ligation in rats; format: in vivo, Wistar rats; conditions: for Incidence rate of arrhythmia CA / Incidence rate of arrhythmia VF / Incidence rate of arrhythmia VT / Occurrence times CA / Occurrence times VF / Occurrence times VP / Occurrence times VT: rats, coronary artery ligation; for Occurrence times CA / Occurrence times VF / Occurrence times VP / Occurrence times VT: x±s
# Description: Models of experimental arrhythmia induced by coronary artery ligation in rats were constructed. The inventive compound was administrated in a dose of 50, 100, 200 mg/kg, respectively. […] Each group wa administrated by gastric perfusion once. The occurrence times and the incidence rates of ventricular premature contraction (VP), ventricular tachycardia (VT), ventricular fibrillation […] and cardiac arrest (CA) after coronary artery ligation in rats were recorded.
# The experimental data were analyzed with the statistic software SPSS 10.0, and represented as x±s. The intergroup comparison was analyzed by the intergroup difference comparison t test. The incidence rates were compared by χ^2 test.
# [4] = background statement; result in words; cited from earlier work
# [5] = 100 mg/kg intragastric, 100 mg/kg
# [6] = 200 mg/kg intragastric, 200 mg/kg
# [7] = 50 mg/kg by gastric perfusion once
# [8] = 100 mg/kg by gastric perfusion once
# [9] = 200 mg/kg by gastric perfusion once
structure (smiles),measurement,setting,value
"O=C(Cc1ccccc1)Nc1c2c(nc3c1CCCC3)CCCC2 (hydrate or solvate) [Inventive compound, 1,2,3,4,5,6,7,8-octohydro-9-phenylacetamidoacridine]",melting point,,234 to 236 °C
"O=C(Cc1ccccc1)Nc1c2c(nc3c1CCCC3)CCCC2 [Hydrochloride of the inventive compound, hydrochloride of 1,2,3,4,5,6,7,8-octohydro-9-phenylacetamidoacridine]",Occurrence time CA,[1]; [5],907.2 ± 250.6 s
same,Occurrence time VF,[1]; [5],640.4 ± 217.3 s
same,Occurrence time VP,[1]; [5],17.3 ± 7.8 s
same,Occurrence time VT,[1]; [5],84.4 ± 19.0 s
same,Occurrence time CA,[1]; [6],911.2 ± 186.4 s
same,Occurrence time VF,[1]; [6],660.2 ± 204.7 s
same,Occurrence time VP,[1]; [6],22.6 ± 6.1 s
same,Occurrence time VT,[1]; [6],98.6 ± 21.3 s
same,Antagonistic action against the arrhythmia induced by aconitine in rats,[1],significant antagonistic actions
same,Dosages of ouabain CA,[2]; [5],280.3 ± 41.5 µg/kg
same,Dosages of ouabain VF,[2]; [5],235.3 ± 36.3 µg/kg
same,Dosages of ouabain VP,[2]; [5],171.8 ± 38.4 µg/kg
same,Dosages of ouabain VT,[2]; [5],189.7 ± 30.3 µg/kg
same,Dosages of ouabain CA,[2]; [6],370.4 ± 66.7 µg/kg
same,Dosages of ouabain VF,[2]; [6],298.7 ± 49.1 µg/kg
same,Dosages of ouabain VP,[2]; [6],189.5 ± 25.4 µg/kg
same,Dosages of ouabain VT,[2]; [6],230.4 ± 35.3 µg/kg
same,Antagonistic action against the arrhythmia induced by ouabain in guinea pigs,[2],significant antagonistic actions
"Nc1c2c(nc3c1CCCC3)CCCC2 [9-amino-1,2,3,4,5,6,7,8-octohydroacridine]",Inhibition activity for cholinesterase,cholinesterase,proved to have an inhibition activity for cholinesterase
"O=C(Cc1ccccc1)Nc1c2c(nc3c1CCCC3)CCCC2 [Inventive compound, 1,2,3,4,5,6,7,8-octohydro-9-phenylacetamidoacridine]",Occurrence time CA,[1]; [5],910.1 ± 276.5 s
same,Occurrence time VF,[1]; [5],621.6 ± 203.7 s
same,Occurrence time VP,[1]; [5],16.9 ± 8.3 s
same,Occurrence time VT,[1]; [5],82.7 ± 21.0 s
same,Occurrence time CA,[1]; [6],905.7 ± 170.3 s
same,Occurrence time VF,[1]; [6],650.4 ± 193.3 s
same,Occurrence time VP,[1]; [6],20.7 ± 6.9 s
same,Occurrence time VT,[1]; [6],95.6 ± 20.6 s
same,Antagonistic action against the arrhythmia induced by aconitine in rats,[1],significant antagonistic actions
same,Dosages of ouabain CA,[2]; [5],283.0 ± 46.5 µg/kg
same,Dosages of ouabain VF,[2]; [5],230.5 ± 46.4 µg/kg
same,Dosages of ouabain VP,[2]; [5],174.9 ± 41.7 µg/kg
same,Dosages of ouabain VT,[2]; [5],184.1 ± 28.8 µg/kg
same,Dosages of ouabain CA,[2]; [6],371.3 ± 69.6 µg/kg
same,Dosages of ouabain VF,[2]; [6],294.5 ± 51.9 µg/kg
same,Dosages of ouabain VP,[2]; [6],185.5 ± 24.8 µg/kg
same,Dosages of ouabain VT,[2]; [6],228.3 ± 36.6 µg/kg
same,Antagonistic action against the arrhythmia induced by ouabain in guinea pigs,[2],significant antagonistic actions
same,Antagonistic action against the experimental arrhythmia induced by coronary artery ligation in rats,"[3]; rats, 50, 100, 200 mg/kg by gastric perfusion, result in words",significant antagonistic action
same,Incidence rate of arrhythmia CA,[3]; [7],21.4%
same,Incidence rate of arrhythmia VF,[3]; [7],35.7%
same,Incidence rate of arrhythmia VT,[3]; [7],42.8%
same,Occurrence times CA,[3]; [7],1141.8 ± 161.9 s
same,Occurrence times VF,[3]; [7],930.5 ± 379.4 s
same,Occurrence times VP,[3]; [7],82.3 ± 79.0 s
same,Occurrence times VT,[3]; [7],773.8 ± 344.3 s
same,Incidence rate of arrhythmia CA,[3]; [8],14.3* %
same,Incidence rate of arrhythmia VF,[3]; [8],14.3* %
same,Incidence rate of arrhythmia VT,[3]; [8],28.6* %
same,Occurrence times CA,[3]; [8],1163.4 ± 124.6 s
same,Occurrence times VF,[3]; [8],1148.3 ± 193.6 s
same,Occurrence times VP,[3]; [8],90.1 ± 39.7 s
same,Occurrence times VT,[3]; [8],920.5 ± 270.6 s
same,Incidence rate of arrhythmia CA,[3]; [9],12.5* %
same,Incidence rate of arrhythmia VF,[3]; [9],12.5* %
same,Incidence rate of arrhythmia VT,[3]; [9],12.5** %
same,Occurrence times CA,[3]; [9],1176.4 ± 729.2 s
same,Occurrence times VF,[3]; [9],1115.0 ± 138.8 s
same,Occurrence times VP,[3]; [9],107.3 ± 67.9 s
same,Occurrence times VT,[3]; [9],1043.2 ± 247.1 s
"Nc1c2c(nc3ccccc13)CCCC2 [Tacrine, 9-amino-1,2,3,4-tetrahydroacridine]",Hepatotoxicity,[4],has a hepatotoxicity
"O=C(Cc1ccccc1)Nc1c2c(nc3c1CCCC3)CCCC2 (as salt: hydrochloride) [Hydrochloride of the inventive compound, hydrochloride of 1,2,3,4,5,6,7,8-octohydro-9-phenylacetamidoacridine]",melting point,,231 to 234 °C
"CC(C)NCC(O)COc1cccc2ccccc12 (stereo not shown) [Propranolol, reference compound]",Occurrence time CA,[1]; 10 mg/kg intragastric,913.7 ± 208.6 s
same,Occurrence time VF,[1]; 10 mg/kg intragastric,705.6 ± 233.2 s
same,Occurrence time VP,[1]; 10 mg/kg intragastric,23.6 ± 6.9 s
same,Occurrence time VT,[1]; 10 mg/kg intragastric,101.6 ± 32.5 s
same,Dosages of ouabain CA,[2]; 10 mg/kg intragastric,390.6 ± 64.4 µg/kg
same,Dosages of ouabain VF,[2]; 10 mg/kg intragastric,323.2 ± 71.4 µg/kg
same,Dosages of ouabain VP,[2]; 10 mg/kg intragastric,201.3 ± 55.6 µg/kg
same,Dosages of ouabain VT,[2]; 10 mg/kg intragastric,240.7 ± 48.78 µg/kg
